Values quoted from earlier work as cited in PMC6099735, “Piplartine Analogues and Cytotoxic Evaluation against Glioblastoma” (Molecules : A Journal of Synthetic Chemistry and Natural …, 2018).

Columns and labels:
Parameters in all cases: method as in PMID 25920262
Details in all cases: MTT test; cited from earlier work
[1] = tested on: BF16F10-Nex2 (murine melanoma)
[2] = tested on: U87MG (human glioblastoma)
[3] = tested on: HeLa (human cervical carcinoma)
[4] = tested on: HCT (human colon carcinoma)
[5] = tested on: HL-60 (human leukemic cell)
A2258 (human melanoma) = tested on: A2258 (human melanoma)

Measured: IC50

COc1cc(/C=C/C(=O)N2CCC=CC2=O)cc(OC)c1OC [Compound 1, Piplartine]
> 200 mg/L: all assays above
